According to patent US10150772B2, “Crystalline forms of PARP inhibitors” (priority 2014, dated 2018):
Entries after “also recorded” stand apart in the source; their conditions may differ. Where a name gives a salt, the structure may show the parent alone. Read-outs that look alike come from different tables or passages of the source.

Tests used:
[1] = type: physicochemical; parameters: DSC: unit not given beside the values; settings: 40° C. and 75% RH; for Stability to the test conditions (in words): 28 day test period
Experimental: Identity, Assay, and Purity by HPLC
Testing was performed on a calibrated and validated Agilent 1200 Rapid Resolution High Performance Liquid Chromatography (HPLC) system designated LC-0430-AD or LC-418-1D. The system comprises a binary SL pump, degasser, high performance autosampler SL with a fraction collector, thermostated column compartment with a 2 valve column switcher, and a DAD SL detector. All standard solutions and samples were prepared in Class A glass volumetric flasks and were placed in autosampler vials. Standard weighings were done using a calibrated Mettler analytical balance. The sample preparations were centrifuged using an Eppendorf microcentrifuge. The primary chromatography data was acquired and integrated using Empower 2 software. Microsoft Office Excel 2003 was used for the calculation of results.
Solid State Stability of Salts at 40° C. and 75% Humidity:
Samples of the form to be studied (15-20 mg) were weighed into standard 1.5 mL HPLC vials (32×11.6 mm) and stored uncapped for 0, 7, 14 and 28 days in a 40° C. and 75% RH stability chamber. Samples were removed on the indicated day and capped. Measurements of XRPD, DSC, TGA and HPLC Identity by Purity and Assay measurements were completed on each time point sample.

[2] = Estimation of water solubility; type: physicochemical; settings: visual inspection, 10 mg sample
Experimental: Estimation of Water Solubility: Ten mg portions of the salt forms to be studied were weighed into a standard 1.5 mL HPLC vial (32×11.6 mm). […] An estimation of solubility was based on the volume of water necessary to dissolve the known weight of sample.

[3] = Dynamic vapor sorption (DVS), water sorption; type: physicochemical; settings: DVS, 25° C.
Experimental: Dynamic Vapor Sorption (DVS):
DVS experiments have been carried out using the DVS-HT instrument (Surface Measurement Systems, London, UK). This instrument measures the uptake and loss of vapor gravimetrically using a recording ultra-microbalance with a mass resolution of ±0.1 μg. The vapor partial pressure (±1.0%) around the sample is controlled by mixing saturated and dry carrier gas streams using electronic mass flow controllers. The desired temperature is maintained at ±0.1° C. The samples (1-10 mg) were placed into the DVS-HT and DVS-1 instruments at the desired temperature.
The sample was loaded and unloaded at 40% RH and 25° C. (typical room conditions). A moisture sorption isotherm was performed as outlined below (2 scans giving 1 complete cycle). The software uses a least squares minimization procedure together with a model of the mass relaxation, to predict an asymptotic value. The measured mass equilibration value must be within 2% of that predicted by the software before proceeding to the next % RH value. The minimum equilibration time was set to 1 hour and the maximum to 4 hours.

COc1cccc2[nH]c3c4c(c5c(c3c12)C(=O)N(CN1CCN(C)CC1)C5=O)CCC4.O=C1CC[C@@H](C(=O)O)N1
COMPOUND A Assay ([1]; day 0): 65.5% | COMPOUND B Assay ([1]; day 0): 0.6% | DSC ([1]; day 0): 198.2 | HPLC Purity ([1]; day 0): 98.6% | TGA ([1]; day 0): 0.49% | COMPOUND A Assay ([1]; day 7): 71.4% | COMPOUND B Assay ([1]; day 7): 0.6% | DSC ([1]; day 7): 199.0 | HPLC Purity ([1]; day 7): 98.7% | TGA ([1]; day 7): 0.54% | XRPD ([1]; day 7): No change | COMPOUND A Assay ([1]; day 14): 60.2% | COMPOUND B Assay ([1]; day 14): 0.8% | DSC ([1]; day 14): 198.3 | HPLC Purity ([1]; day 14): 98.2% | TGA ([1]; day 14): 0.64% | XRPD ([1]; day 14): No change | COMPOUND A Assay ([1]; day 28): 64.0% | COMPOUND B Assay ([1]; day 28): 1.2% | DSC ([1]; day 28): 198.4 | HPLC Purity ([1]; day 28): 97.2% | XRPD ([1]; day 28): No change

COc1cccc2[nH]c3c4c(c5c(c3c12)C(=O)N(CN1CCN(C)CC1)C5=O)CCC4 [39-1(2)]
Estimated Water Solubility [2]: ~25 mg/mL

COc1cccc2[nH]c3c4c(c5c(c3c12)C(=O)N(CN1CCN(C)CC1)C5=O)CCC4 [39-2(2)]
Estimated Water Solubility [2]: >100 mg/mL

COc1cccc2[nH]c3c4c(c5c(c3c12)C(=O)N(CN1CCN(C)CC1)C5=O)CCC4 [39-3(2)]
Estimated Water Solubility [2]: >100 mg/mL

COc1cccc2[nH]c3c4c(c5c(c3c12)C(=O)N(CN1CCN(C)CC1)C5=O)CCC4 [39-5(2)]
Estimated Water Solubility [2]: >100 mg/mL

COc1cccc2[nH]c3c4c(c5c(c3c12)C(=O)N(CN1CCN(C)CC1)C5=O)CCC4 [Acetate Salt, Form A1.5]
Stability to the test conditions (in words) [1]: changes throughout the 28 day test period | HPLC Purity ([1]; day 0): 99.7% | TGA ([1]; day 0): 21.5% | COMPOUND A Assay ([1]; day 0, HPLC): 78.1% | COMPOUND B Assay ([1]; day 0, HPLC): 0.2% | HPLC Purity ([1]; day 7): 99.6% | TGA ([1]; day 7): 20.0% | XRPD ([1]; day 7): Shows hydrate | COMPOUND A Assay ([1]; day 7, HPLC): 70.2% | COMPOUND B Assay ([1]; day 7, HPLC): 0.1% | HPLC Purity ([1]; day 14): 99.5% | TGA ([1]; day 14): 16.1% | XRPD ([1]; day 14): Shows hydrate | COMPOUND A Assay ([1]; day 14, HPLC): 84.2% | COMPOUND B Assay ([1]; day 14, HPLC): 0.2% | HPLC Purity ([1]; day 28): 99.6% | TGA ([1]; day 28): 9.6% | XRPD ([1]; day 28): Shows hydrate, | COMPOUND A Assay ([1]; day 28, HPLC): 90.9% | COMPOUND B Assay ([1]; day 28, HPLC): 0.3% | DVS sorption behaviour (in words) [3]: steady weight loss during the drying curves with no equilibration reached

COc1cccc2[nH]c3c4c(c5c(c3c12)C(=O)N(CN1CCN(C)CC1)C5=O)CCC4 [Glycolate Salt Hydrate, Form A1]
Stability to the test conditions (in words) [1]: fairly stable to the test conditions; also recorded: generated the least amount of Compound B | HPLC Purity ([1]; day 0): 99.8% | TGA ([1]; day 0): 2.1% | COMPOUND A Assay ([1]; day 0, HPLC): 69.9% | COMPOUND B Assay ([1]; day 0, HPLC): 0.1% | HPLC Purity ([1]; day 7): 99.6% | TGA ([1]; day 7): 2.3% | XRPD ([1]; day 7): No change | COMPOUND A Assay ([1]; day 7, HPLC): 68.4% | COMPOUND B Assay ([1]; day 7, HPLC): 0.1% | HPLC Purity ([1]; day 14): 99.7% | TGA ([1]; day 14): 2.6% | XRPD ([1]; day 14): No change | COMPOUND A Assay ([1]; day 14, HPLC): 73.2% | COMPOUND B Assay ([1]; day 14, HPLC): 0.2% | HPLC Purity ([1]; day 28): 99.5% | TGA ([1]; day 28): 3.5% | XRPD ([1]; day 28): No change | COMPOUND A Assay ([1]; day 28, HPLC): 66.8% | COMPOUND B Assay ([1]; day 28, HPLC): 0.6% | DVS sorption behaviour (in words) [3]: surface adsorption with limited bulk absorption throughout the entire RH range | Total uptake in moisture at 90% RH ([3]; 90% RH): ~3.5%

COc1cccc2[nH]c3c4c(c5c(c3c12)C(=O)N(CN1CCN(C)CC1)C5=O)CCC4 [Hydrochloride Salt, Form A]
Stability to the test conditions (in words) [1]: relatively constant XRPD pattern | Compound A Assay value, change (in words) ([1]; after 28 days): decreasing to nearly half | DVS sorption behaviour (in words) [3]: surface adsorption with limited bulk absorption throughout the entire RH range | Total uptake (moisture) ([3]; entire RH range): ~2.25%

COc1cccc2[nH]c3c4c(c5c(c3c12)C(=O)N(CN1CCN(C)CC1)C5=O)CCC4 [Sample 13-3]
Estimated Water Solubility [2]: 50 to 100 mg/mL

COc1cccc2[nH]c3c4c(c5c(c3c12)C(=O)N(CN1CCN(C)CC1)C5=O)CCC4 [Sample 13-4]
Estimated Water Solubility [2]: <10 mg/mL

COc1cccc2[nH]c3c4c(c5c(c3c12)C(=O)N(CN1CCN(C)CC1)C5=O)CCC4 [Sample 13-5]
Estimated Water Solubility [2]: <10 mg/mL

COc1cccc2[nH]c3c4c(c5c(c3c12)C(=O)N(CN1CCN(C)CC1)C5=O)CCC4 [Sample 13-6]
Estimated Water Solubility [2]: >100 mg/mL

COc1cccc2[nH]c3c4c(c5c(c3c12)C(=O)N(CN1CCN(C)CC1)C5=O)CCC4 [Sample 13-7]
Estimated Water Solubility [2]: 50 to 100 mg/mL

COc1cccc2[nH]c3c4c(c5c(c3c12)C(=O)N(CN1CCN(C)CC1)C5=O)CCC4 [Sample 13-8]
Estimated Water Solubility [2]: >100 mg/mL

COc1cccc2[nH]c3c4c(c5c(c3c12)C(=O)N(CN1CCN(C)CC1)C5=O)CCC4 [Sample 13-9]
Estimated Water Solubility [2]: <10 mg/mL

COc1cccc2[nH]c3c4c(c5c(c3c12)C(=O)N(CN1CCN(C)CC1)C5=O)CCC4 [Sample 13-10]
Estimated Water Solubility [2]: 10 to 20 mg/mL

COc1cccc2[nH]c3c4c(c5c(c3c12)C(=O)N(CN1CCN(C)CC1)C5=O)CCC4 [Sample 30-1]
Estimated Water Solubility [2]: ~20 mg/mL

COc1cccc2[nH]c3c4c(c5c(c3c12)C(=O)N(CN1CCN(C)CC1)C5=O)CCC4 [Sample 30-2]
Estimated Water Solubility [2]: >100 mg/mL

COc1cccc2[nH]c3c4c(c5c(c3c12)C(=O)N(CN1CCN(C)CC1)C5=O)CCC4 [Sample 30-3]
Estimated Water Solubility [2]: >100 mg/mL

COc1cccc2[nH]c3c4c(c5c(c3c12)C(=O)N(CN1CCN(C)CC1)C5=O)CCC4 [Sample 30-4]
Estimated Water Solubility [2]: >100 mg/mL

COc1cccc2[nH]c3c4c(c5c(c3c12)C(=O)N(CN1CCN(C)CC1)C5=O)CCC4 [Sample 30-5]
Estimated Water Solubility [2]: ~25 mg/mL

COc1cccc2[nH]c3c4c(c5c(c3c12)C(=O)N(CN1CCN(C)CC1)C5=O)CCC4 [Sample 31-1]
Estimated Water Solubility [2]: ~25 mg/mL

COc1cccc2[nH]c3c4c(c5c(c3c12)C(=O)N(CN1CCN(C)CC1)C5=O)CCC4 [Sample 31-2]
Estimated Water Solubility [2]: >100 mg/mL

COc1cccc2[nH]c3c4c(c5c(c3c12)C(=O)N(CN1CCN(C)CC1)C5=O)CCC4 [Sample 31-3]
Estimated Water Solubility [2]: >100 mg/mL

COc1cccc2[nH]c3c4c(c5c(c3c12)C(=O)N(CN1CCN(C)CC1)C5=O)CCC4 [Sample 31-4]
Estimated Water Solubility [2]: >100 mg/mL

COc1cccc2[nH]c3c4c(c5c(c3c12)C(=O)N(CN1CCN(C)CC1)C5=O)CCC4 [Sample 31-5]
Estimated Water Solubility [2]: ~25 mg/mL

COc1cccc2[nH]c3c4c(c5c(c3c12)C(=O)N(CN1CCN(C)CC1)C5=O)CCC4 [Sample 39-1]
Estimated Water Solubility [2]: ~50 mg/mL

COc1cccc2[nH]c3c4c(c5c(c3c12)C(=O)N(CN1CCN(C)CC1)C5=O)CCC4 [Sample 39-2]
Estimated Water Solubility [2]: <10 mg/mL

COc1cccc2[nH]c3c4c(c5c(c3c12)C(=O)N(CN1CCN(C)CC1)C5=O)CCC4 [Sample 39-3]
Estimated Water Solubility [2]: >100 mg/mL

COc1cccc2[nH]c3c4c(c5c(c3c12)C(=O)N(CN1CCN(C)CC1)C5=O)CCC4 [Sample 39-4]
Estimated Water Solubility [2]: >100 mg/mL

COc1cccc2[nH]c3c4c(c5c(c3c12)C(=O)N(CN1CCN(C)CC1)C5=O)CCC4 [Sample 39-5]
Estimated Water Solubility [2]: >100 mg/mL
